# Assay results: a melting point compilation (Tetko et al.; mined from patent text by program, amines drawn as free bases though some values may be those of a salt)
row,melting point [°C],Compound
1,320 to 325,CC1(C)C(=O)Nc2cc3[nH]c(-c4ccc(Cl)c(Cl)c4)nc3cc21
2,187 to 189,COc1cccc(CNC(=O)c2nc3cccc(O)c3c(=O)[nH]2)c1
3,82 to 84,CSCCCCCC=C(NC(=O)C1CC1(C)C)C(=O)O (centres undefined)
4,176 to 178,Cc1ccc(Cl)cc1N1CCCN(C(C)C)C1=S
5,94 to 97,COc1cc(OCc2ccccn2)ccc1/C=C/c1cc(/C=C/c2ccc3cc[nH]c3c2)n(C(C)O)n1 (centres undefined)
6,110 to 112,CC(=O)OCCSc1nc(C(C)(C)C)nn1C(=O)N(C)C
7,199 to 200,CCn1cc(C(=O)NCc2ccc(Cl)cc2)c(=O)c2cc(CCl)sc21
8,210 to 213,Cc1ccc(-c2ccc(C(=O)Nc3ccc4cc(CN5CCCC5)cnc4c3F)cc2)cc1
9,204 to 206,CC(=C1SC(=O)NC1=O)c1ccc(OCCOc2c(-c3ccc(F)c(F)c3)n(C)c3ccccc3c2=O)c(F)c1
10,82,CCCCCCCCCCCCC(C(=O)O)S(=O)(=O)c1ccc(OC)cc1 (centres undefined)
11,205 to 207,O=C1CCC(n2cnc(-c3ccc(F)cc3)c2-c2ccnc(Nc3ccccc3)n2)CC1
12,112,CCOC(=O)C1=C(C)NN=C(CC)C1c1cccc(Cl)c1 (centres undefined)
13,258 to 260,O=Cc1ccccc1-c1ccc(C(=O)Nc2ccc3cccnc3c2)cc1
14,168 to 170,Cc1ccc(C(=O)Nc2ccc(CN3CCCC3)c(C(F)(F)F)c2)cc1-c1ccc2cnncc2c1
15,148 to 151,O=C(NC1CCCc2c(O)cccc21)c1cccc(Cl)c1O (centres undefined)
16,204 to 205,CCCc1ccnc2c(=O)[nH]c(-c3cc(S(=O)(=O)N4CCC(C(=O)OCC)CC4)ccc3OCC)nc12
17,76 to 77,CCC(CC)c1nn(-c2ccc(C(F)(F)F)nn2)cc1CCCOc1c(C)cccc1CC(=O)O
18,141 to 146,CNc1cnc(-c2cccnc2)s1
19,81 to 82,[N-]=[N+]=NC[C@H]1CN(c2cccc(F)c2)C(=O)O1
20,211 to 212,N#Cc1ccc(Nc2cccc(I)c2)c([N+](=O)[O-])c1
21,74 to 75,CCCCCCCNC1=CC(=O)c2c(OC)ccc(OC)c2C1=O
22,170 to 171,CC(=O)OC1CCC2(C)C(=CCC3C2CCC2(C)C(C(C)CO)=CCC32)C1 (centres undefined)
23,51 to 52,CCCCCc1sc(C(=O)OCC)nc1-c1ccccc1
24,83 to 84,CCCCc1ccc(OCCN2CCN(c3cc(Cl)nnc3Cl)CC2)cc1
25,86 to 88,COc1cc(-n2nc(C)n(C(F)F)c2=O)c(F)cc1Cl
26,169 to 172,OCC1N=c2c(ccc3c2=CC=N3)O1 (centres undefined)
27,67.5 to 70,COc1ccc(OC(Cc2ccc(OCCNC(=O)c3ccc(-c4ccccn4)cc3)cc2)C(=O)O)cc1 (centres undefined)

row,melting point [°C],Compound
1,68 to 69,COc1ccc(C(O)c2ccc3cc(OC)ccc3c2)c(F)c1 (centres undefined)
2,187 to 188,Cc1ccc(CSc2nc3cc4c(cc3[nH]2)OCO4)nc1
3,51,CCCCCCCCC=CCCCCCCCCCCCC(=O)NCCOC(C)=O
4,193 to 196,CCNC(=O)NC[C@H]1CN(c2ccc3c(c2)CCCc2cnoc2-3)C(=O)O1
5,> 250,Cc1nc(O)c2[nH]nc(C(C)C)c2n1
6,> 260,Cc1cc2nncc(O)c2cc1C
7,108 to 109,O=C1COC(=O)C1=Cc1cccc(C(F)(F)F)c1
8,90 to 92,CC(=O)c1csc2ccc(F)cc12
9,174 to 176,COc1cc(OC)c(-c2cccs2)cc1/C=C/C(=O)c1ccc(S(=O)(=O)NN2CCCCC2)cc1
10,148 to 150,O=C(N[C@H](Cc1cccc(OC(F)(F)C(F)F)c1)[C@@H](O)c1csc(-c2ccccc2)n1)c1ccc(F)c2ccccc12 (racemic)
11,197 to 198,O=C(O)c1ccc2oc(Cc3cccnc3)cc2c1
12,185,CN1CCC(C(=O)O)(S(=O)(=O)c2ccc(Oc3ccc(Cl)cc3)cc2)CC1
13,112 to 113,CCOC(=O)n1c(C)c(Cc2ccc(Cl)cc2Cl)c2nc(C#N)ccc21
14,151 to 152,CCCOc1ccc2c(O)c([N+](=O)[O-])c(=O)oc2c1
15,150 to 152,O=C(O)C1(c2ccc(I)cc2)CC1
16,77 to 79,CCCCCCCCCCCCCCCCCNC(=O)OCC(CO)Oc1cc(C)on1 (centres undefined)
17,199 to 200,N#Cc1cc(C(=O)NNC(=O)c2occc2-c2ccc(Oc3ccccc3)cc2)ccc1O
18,150 to 160,Nc1sc(CC(C(=O)O)C(=O)O)cc1C(=O)c1ccccc1Cl
19,95 to 97,COc1ccc2c(c1)CC[C@@H]1[C@@H]2CC[C@@]2(C)[C@H]1CCC21CC(O)CO1 (some centres undefined)
20,55 to 57,CCCN(CCC)C(=O)Cc1ccc(O)c([N+](=O)[O-])c1
21,152 to 154,C/C(=C\CCl)n1ncc(-c2ccc(S(N)(=O)=O)cc2)c(-c2ccc(F)cc2)c1=O
22,143 to 145,COc1nc2cc(Cl)c(Cl)c(CSC)c2nc1OC
23,235 to 237,Cc1ccc(S(=O)(=O)Nc2cc(C(=O)O)c3c(c2)C(C(=O)O)CC(c2ccccc2)N3)cc1 (centres undefined)
24,103,CC(=O)/C=C(\C)c1ccc(-c2ccccc2)c(F)c1
25,80 to 82,CCCCCCCCCCCCC1=C(Cl)C(=O)c2ccccc2C1=O
26,62.5 to 64,C=C(C)Cc1cc(C)c2c(c1O)C(=O)CC2
27,98 to 99,COc1cc(C)c(C(=O)c2c(OC)cnc(Cl)c2Cl)c(OC)c1OC

row,melting point [°C],Compound
1,86.9 to 90,Cc1cc2cccc(-c3ccc(Cl)cc3Cl)n2n1
2,161 to 162,COc1cccc(C(CC(N)=O)CC(N)=O)c1
3,300 to 305,O=C(O)c1cccc(-n2c(=O)c3c(Cc4ccccc4)n[nH]c3c3cccnc32)c1
4,214 to 215,CS(=O)(=O)c1ccc(C(=O)O)c(F)c1F
5,128 to 130,CC(C)(C)OC(=O)NCc1ccc(N2CC(C(=O)N3CCN(CCC(=O)OCc4ccccc4)CC3)OC2=O)cc1 (centres undefined)
6,68 to 71,CCCCNC(=S)c1cccc(NC(=O)N(C)C)c1
7,86,O=S(=O)(CC=Cc1ccccc1)CCCO
8,82,COc1ccc(-c2cc(F)cc3c2NC(CN)CO3)c(C)c1 (centres undefined)
9,194 to 196,CCCCOCCOc1ccc(-c2ccc3c(c2)C=C(C(=O)Nc2ccc(CN(C)C4CCOCC4)cc2)CCS3(=O)=O)cc1
10,311 to 313,COc1ccc(-c2c3c(cc4ccc5c(c24)OCO5)C(=O)NC3=O)cc1
11,62 to 64,CC(C)S(=O)c1cnc(Cl)c(Cl)c1 (centres undefined)
12,242 to 245,O=C(Oc1ccc(O)cc1)c1ccc(O)cc1
13,119 to 121,CC(=O)c1nc2ccc(OCC(F)(F)C(F)F)cc2cc1O
14,185 to 195,COc1cc(N2CCN(C)CC2)ccc1-c1nc2c(N[C@H]3[C@@H](C(N)=O)[C@@H]4C=C[C@H]3C4)ccnc2[nH]1
15,251 to 255,NC1CCN(c2nc3c(cc2F)c(=O)c(C(=O)O)cn3CCF)C1 (centres undefined)
16,151 to 153,CCOC(=O)c1cnc2c(SC(=O)N3CCN(c4ccccc4OC)CC3)cccn2c1=O
17,184 to 187,O=C1CCc2cc(NCC(=O)N3CCC(Cc4ccccc4)CC3)ccc2N1
18,148 to 150,COc1ccc2c(c1)CC(=O)N2
19,51.4 to 53.4,CC(C)(C)C(=O)Nc1ccc(Cl)cn1
20,152 to 154,NCCSc1nc(-c2ccccc2)c(-c2ccccc2)[nH]1
21,157 to 159,O=C(Nc1cccnc1NCC(O)c1ccccc1)c1ccc(Cl)cc1 (centres undefined)
22,125,O=S1(=O)c2ccc(Cl)c3cccc(c23)N1CCCN1CCN(c2ccc(F)cc2)CC1
23,87 to 88,Cc1nc(S(=O)(=O)CC(=O)OCc2cccs2)nc(C)c1Br
24,232 to 234,CN1CCC[C@H]1c1cnccc1C(O)(c1ccccc1)c1ccccc1
25,72 to 77,CCNc1nc(=S)n(Cc2ccc(OC)c(OC3CCCC3)c2)c2nc(C(C)C)[nH]c12
26,214,Cc1cccc(NC(=O)NCC(=O)N(CC(=O)NC(C)(C)C)c2ccccc2)c1

row,Compound,melting point [°C]
1,Cc1nc(CN)c2n1-c1ccc(Cl)cc1C(c1ccccc1)=NC2,217 to 219
2,CN1C2CCC1CC(c1ccc3ccccc3c1)C2 (centres undefined),77 to 79
3,CCC1(c2cn(-c3c(Cl)cc(C(F)(F)F)cc3Cl)nc2C#N)CC1(Br)Br (centres undefined),107 to 108
4,CN(C)C1(c2cccc(F)c2)CCC(=CC(=O)NCCCc2ccccc2)CC1 (centres undefined),129 to 131
